Laboratory results: paper PMC12844744, “Complexed Linalool with Beta-Cyclodextrin Improve Antihypertensive Activity: Pharmacokinetic and Pharmacodynamic Insights” (Pharmaceuticals, 2025)
Like-named read-outs stand apart in the source and are kept apart here.

Key:
[1] = Plasma pharmacokinetics (non-compartmental analysis), healthy Wistar rats; format: in vivo; settings: NCA, mean ± SD; for Fabs, Absolute bioavailability: 100 mg/kg; for AUC(0-inf): n = 6, read-out: AUC0−∞, Total Area Under the Curve; for MRT: n = 6, read-out: MRT, Mean Residence Time; for k el: n = 6, read-out: ke, elimination rate constant (converted); for half-life: n = 6, read-out: t1/2, half-life (converted)
Description: A bioanalytical methodology was developed and validated to quantify LIN in rat plasma using high-performance liquid chromatography with UV detection (HPLC/UV), according to RDC 27/2012 of the National Agency of Sanitary Vigilance, Brazil. Plasma aliquots (100 µL) were extracted with 300 µL of acetonitrile.
The samples were vortexed for 3 min and centrifuged at 13,000× g for 15 min, at 8 °C. The supernatant aliquots were injected into an HPLC instrument (PerkinElmer, Waltham, MA, USA), Flexar™ HPLC model), using reversed-phase column C18 (Nucleosil column 250 mm × 4.6 mm internal diameter, particle size 5 μm (Macherey—Nagel, Versmold, Germany) protected by a guard column with the same material (Hypersil BDS, 10 mm, particle size 5 μm (Thermo Scientific, Waltham, MA, USA) at a temperature of 50 ± 1 °C during the analysis.
The mobile phase was composed of water: acetonitrile (70:30, v/v), at a flow rate of 1 mL/min. LIN was detected at a wavelength of 210 nm, and the peak area was used for the quantitation of samples. The method was precise, sensitive and accurate within the concentration range of 5–100 ng/mL. All samples quantified were between the concentration range, the higher concentrations were diluted to reach the higher linear concentration.
Plasma pharmacokinetic parameters were estimated after administration of 50 mg/kg and 100 mg/kg, i.v. and orally, respectively, of LIN; 100 mg/kg orally of LIN/β-CD, in healthy Wistar rats; and 50 mg/kg of LIN/β-CD, in SHRs.
The animals received the drugs at the above doses through the caudal lateral vein or by oral gavage. Six animals were evaluated per group, as stated in the literature. After administration of the compounds, approximately 200 µL of blood samples were collected from the caudal lateral vein at 0.083, 0.25, 0.5, 1, 1.5, 2, 4, 6, and 8 h. Plasma was separated by centrifugation (6800× g at 8 ± 1 °C for 15 min) and stored at −20 °C until analysis. Non-compartmental analysis (NCA) of the individual concentration-time profiles was performed using Excel® 2016 software (Microsoft Corporation, Redmond, […], USA).
Calculated pharmacokinetic parameters included: the elimination rate constant (ke), absorption rate constant (ka), area under the concentration-time curve from 0 h to infinity (AUC0−∞), clearance (Cltot), half-life (t1/2), the volume of distribution (V), mean residence time (MRT), mean absorption time (MAT), absolute bioavailability (Fabs) and relative bioavailability (Frel). All the pharmacokinetic (PK) parameters were estimated individually aby analyzing the individual PK profiles. Results were expressed as the mean ± SD, and the PK parameters were compared by ANOVA followed by Student’s t-test (α = 0.05).

[2] = Population PK model, intravenous administration in healthy rats; format: in vivo, Wistar rats; settings: i.v., 2-compartment model, linear elimination, combined error
Description: (§1) Population pharmacokinetic analysis was performed using Monolix® Suite 2019R1 software (Lixoft®, Antony, France). Structural models evaluated included 1- and 2-compartment models, first-order absorption, and linear elimination. Different error models were analyzed to explain the variability of the residual error, including a constant, proportional, and combined error model. […] The models were parameterized in V, ka, ke, and distribution constants (k1-2 and k2-1). The parameters were estimated with a stochastic approximation. The object function value (OFV), represented as −2 times the log-likelihood (−2LL) and Akaike Information Criterion (AIC), was used to compare the models.
(§2) The base model for i.v. and oral administration has been established. For oral linalool, after establishing the base model, new models adding the categorical covariates investigated in the study (complexed linalool administered in healthy rats and complexed linalool administered in SHRs) were developed. The visual analysis of the graphs and statistical tests (Pearson’s correlation and ANOVA) were carried out to verify if there is any relationship between the random effects of the parameters (h) and the covariables that could contribute to improving the model.
(§3) The graphs that correlate the plasma concentrations with the predicted individual or population plasma concentrations were evaluated by individual waste distribution charts (IWRES). Also, to evaluate whether simulations performed from the developed model are capable of reproducing the median and the variability of the observed data, a graph was generated to verify the predicted data visual predictive check (VPC).

[3] = Population PK model with covariates, oral administration data; format: in vivo, Wistar rats and SHR
Description: as §1, §2, §3

[4] = system: spontaneously hypertensive rats (SHR); test: Acute intravenous effects on blood pressure and heart rate; format: in vivo, rat; settings: i.v. 50 mg/kg, n = 5, mean ± S.E.M.
From the text: This protocol aimed to evaluate the acute hemodynamic effects of LIN, administered intravenously (i.v.), on blood pressure (BP) and heart rate (HR) in spontaneously hypertensive rats (SHR) and normotensive Wistar rats. Animals were anesthetized with ketamine and xylazine (Cristália), and following trichotomy of the iliac region, polyethylene (PE) catheters were implanted into the femoral artery and vein.
The catheters consisted of PE-10 segments (internal/external diameter: 0.28/0.61 mm) connected to PE-50 catheter (internal/external diameter: 0.58/0.96 mm). To prevent catheter blockage during the hemodynamic recordings, the arterial and venous catheters were implanted pre-filled with a sterile saline–heparin solution (heparin: 100 UI). […]
Following a 24 h recovery period, baseline physiological parameters, including systolic BP (SBP), diastolic BP (DBP), and heart rate, were recorded. BP was continuously monitored via the arterial catheter connected to a pressure transducer (ADInstruments, São Paulo, Brazil). The signal was amplified and digitized at 1 kHz using a PowerLab 8/35 data acquisition system and analyzed with LabChart 8 Pro software (ADInstruments, São Paulo, Brazil). Once cardiovascular parameters stabilized, SBP, DBP, and HR were recorded as baseline control values. […]

[5] = system: spontaneously hypertensive rats (SHR); test: Acute oral (orogastric) effects on blood pressure and heart rate over 6 h; format: in vivo, rat; settings: oral 50 mg/kg, monitored 6 h, vs vehicle
[6] = system: spontaneously hypertensive rats (SHR); test: Chronic 60-day oral treatment: blood pressure and heart rate by tail-cuff plethysmography; format: in vivo, rat; settings: 50 mg/kg/day p.o., 60 days, vs SHR vehicle
Description: (§4) Before starting any treatment, animals were conditioned for one week to minimize stress-related variability in BP and HR measurements. SHRs were randomly assigned to three experimental groups: Group 1 (SHR + Vehicle): Received saline solution (0.1 mL/100 g, p.o.); Group 2 (SHR + LIN): Treated with (-)-linalool (50 mg/kg/day, p.o.); and Group 3 (SHR + LIN/β-CD): Treated with the LIN/β-cyclodextrin inclusion complex (50 mg/kg/day, p.o.). An additional control group of normotensive Wistar rats (Group 4: Wistar + Vehicle) received saline under the same dosing protocol to serve as a baseline.
All treatments were administered orally once daily (between 08:00 and 12:00 h) for a period of 60 days, and cardiovascular assessments were performed with all groups in the afternoon (between 12:00 and 18:00 h), approximately 60 min post-administration. BP and heart rate were measured every five days throughout the treatment period using the tail-cuff plethysmography method (Insight® V2.11, São Paulo, Brazil). Systolic and diastolic blood pressures were measured in triplicate for each animal, and the average of these values was used for data analysis and graphical representation.

[7] = Body weight progression during 60-day treatment; format: in vivo, rat; settings: 50 mg/kg/day p.o., 60 days
Description: as §4

[8] = system: isolated superior mesenteric artery rings from SHRs; test: Vascular reactivity of isolated superior mesenteric artery rings after 60-day treatment; format: in vivo, rat; settings: mesenteric rings from SHR treated 50 mg/kg/day 60 days, mean ± S.E.M.
[9] = system: spontaneously hypertensive rats (SHR); test: Cardiac mass index after 60-day treatment; format: in vivo, rat; settings: 50 mg/kg/day p.o., 60 days, vs SHR vehicle
Description: (§5) After 60 days of treatment period, Wistar and SHRs were euthanized in a carbon dioxide (CO2) chamber. Hearts were carefully excised, and surrounding adipose tissue and vascular structures were meticulously removed. Each heart was weighed using an analytical balance, and the cardiac mass index was calculated by normalizing the heart weight to the total body weight of the animal. A transverse cut was then made, and the left and right ventricles, and thoracic aortas. Both tissues were fixed in 4% formaldehyde for histological processing.

[10] = system: spontaneously hypertensive rats (SHR); test: Histology of left ventricle and aorta (HE, Picrosirius Red) after 60-day treatment; format: in vivo, rat; settings: 50 mg/kg/day p.o., 60 days
Description: as §5
The hearts and thoracic aortas were fixed in 4% buffered formaldehyde (0.1 M sodium phosphate buffer, pH 7.4), followed by washing in distilled water. Tissue dehydration was carried out in a graded ethanol series of increasing concentrations, ending with absolute ethanol. Samples were then cleared in xylene, embedded in paraffin, and sectioned using a microtome (RM2125RT, Leica®, Wetzlar, Germany) to obtain serial 5 μm sections. […]
Histological evaluation was conducted in a blinded manner. […] Parameters assessed included the presence or absence of inflammatory infiltrates, hemorrhagic areas, and structural alterations such as decreased cardiomyocyte volume, disruption of muscle fiber continuity, loss of transverse striations, sarcoplasmic granulation, contraction bands, and nuclear changes indicative of tissue injury. […]

[11] = set-up: method as in PMID 16596022; settings: cited from earlier work
[12] = 2-compartment model, first-order absorption, covariates Complex and Complex SHR in V and k12

C=CC(C)(O)CCC=C(C)C (stereo not shown) [LIN, 3,7-dimethyl-1,6-octadien-3-ol]
CL, clearance ([1]; oral 100 mg/kg, n = 6): 84.3 ± 37.8 mL/min/kg
MAT, Mean absorption time ([1]; oral 100 mg/kg, n = 6): 4.69 ± 1.50 h
Vd, Volume of Distribution ([1]; oral 100 mg/kg, n = 6): 16.29 ± 10.73 L/kg
ka, absorption rate constant ([1]; oral 100 mg/kg, n = 6): 0.23 ± 0.07 h⁻¹
Fabs, Absolute bioavailability ([1]; oral 100 mg/kg, n = 6, listed as LIN Free): 0.003 ± 0.001%
Fabs, Absolute bioavailability ([1]; oral 100 mg/kg, n = 6, listed as free LIN): approximately 0.003%
AUC(0-inf) ([1]; rat, plasma, iv, i.v. 50 mg/kg): 25300 ± 18600 ng·h/mL
clearance ([1]; rat, plasma, iv, i.v. 50 mg/kg, n = 6, read-out: CL, clearance (converted)): 50.5 mL/min/kg
MRT ([1]; rat, plasma, iv, i.v. 50 mg/kg): 8.75 ± 4.78 h
Vd ([1]; rat, plasma, iv, i.v. 50 mg/kg, n = 6, read-out: Vd, Volume of Distribution): 25.2 ± 10.4 L/kg
k el ([1]; rat, plasma, iv, i.v. 50 mg/kg): 3.61e-05 s⁻¹
half-life ([1]; rat, plasma, iv, i.v. 50 mg/kg): 6.6 ± 4.04 h
AUC(0-inf) ([1]; rat, plasma, oral 100 mg/kg): 40 ± 20 ng·h/mL
MRT ([1]; rat, plasma, oral 100 mg/kg): 1.97 ± 0.65 h
k el ([1]; rat, plasma, oral 100 mg/kg): 2.5e-05 s⁻¹
half-life ([1]; rat, plasma, oral 100 mg/kg): 8.64 ± 4.44 h
Vd ([2]; Wistar, rat, plasma, iv, 50 mg/kg, read-out: V, volume of distribution (population estimate)): 22.4 L
k el ([2]; Wistar, rat, plasma, iv, 50 mg/kg, read-out: ke, first-order elimination rate (population estimate) (converted)): 0.000101 s⁻¹
k12, distribution constant (population estimate) [2]: 0.461 h⁻¹
k21, distribution constant (population estimate) [2]: 1.05 h⁻¹
V, volume of distribution (population estimate) [3, 12]: 15.28 L
k21, distribution microconstant (population estimate) [3, 12]: 0.0711 h⁻¹
ka, absorption rate constant (population estimate) [3, 12]: 0.226 h⁻¹
k el ([3]; Wistar and SHR, rat, plasma, 2-compartment model, first-order absorption, covariates Complex and Complex SHR in V and k12, read-out: ke, first-order rate elimination (population estimate) (converted)): 4.53e-05 s⁻¹
V (typical population parameter, as given in text) ([3]; final model with covariates): 15.28 L/kg
%HR, percent change in heart rate relative to baseline [4]: −54.54 ± 4.84%
%MAP, percent change in mean arterial pressure relative to baseline [4]: −56.64 ± 5.05%
Effect on blood pressure after oral administration [5]: failed to produce any significant antihypertensive effect
Effect on arterial pressure, chronic treatment [6]: significantly reduced arterial pressure
Body weight progression [7]: no significant changes
Emax of contractile response to phenylephrine ([8]; Phe 10^−10 to 10^−5 M, expressed as percentage of KCl 60 mM contraction, in %): 146.72 ± 12.34
Emax of endothelium-independent relaxation to sodium nitroprusside ([8]; SNP 10^−13 to 10^−5 M, percentage of Phe-induced contraction, in %): −121.04 ± 10.45
Emax of endothelium-dependent vasorelaxation to acetylcholine ([8]; in % (unit assumed)): −70.52 ± 6.80
Cardiac mass index (heart weight / body weight) [9]: not observed
Aortic histology ([10]; aorta): no signs of vascular remodeling
Myocardial histology (hematoxylin-eosin) ([10]; left ventricle): preserved myocardial morphology
LogP [11]: ~ 3.3
